# Patent publication US7342100B2, “Hpr6 mutants and uses thereof” (University of Kentucky Research Foundation, priority 2004, dated 2008)
# Legend:
# Hpr6 = experiment: Induction of Hpr6 expression by drugs, western blot; type: cell-based, human
# Text: 1A: western blot analysis showing expression of Hpr6 (top panel) and tubulin (bottom panel) in the cell lines BT549 (lane 1), MCF-7 (lane 2), HCT-100 (lane 3), MDA-MB-231 (lane 4), MDA-MB-435 (lane 5), and HeLa (lane 6). […] The position of molecular weight markers is indicated to the left. […] MDA-MB-231 cells were untreated (upper panel, lane 1), treated with 0.5 or μM doxorubicin (upper panel, lanes 2 and 3), or 0.25 1 μm camptothecin (upper panel, lane 4) for 3 days, and the expression of Hpr6 was analyzed by western blot.
# Drug treatment, viability assays, and immunological analyses. Doxorubicin (Sigma, St. Louis, Mo.) was added to culture media and incubated for five days. Cells were incubated with hydrogen peroxide (Fisher), mechlorethamine (kindly provided by Dr. Robert Orlowski, University of North Carolina at Chapel Hill) or camptothecin (Sigma) for 72 hours. Trypan blue and MTT assays were performed using standard techniques as previously described (Hand et al. Journal of Cellular Biochemistry 2003; 90: 534-47). Western blots of cultured cells and tumors were performed as described previously (Hand et al. Journal of Cellular Biochemistry 2003; 90: 534-47; Yang et al. Tumor Biology 2003; 24: 61-9). The antibodies used were as follows: anti-HA (HAll, BAbCo, Berkeley, Calif.), tubulin (Fisher), and Hpr6 (Meyer et al. Steroids 1998; 63: 111-6). Cells were visualized using a VistaVision inverted microscope attached to a Sony DCS F717 digital camera (VWR, Batavia, Ill.). For immunofluorescence, MCF-7/vector and MCF-7/Hpr6 cells (Hand et al. Journal of Cellular Biochemistry 2003; 90: 534-47) were fixed with 3.7% formaldehyde, permeabilized with 0.1% Triton X-100, blocked with 10% normal goat serum, and incubated with the HAll monoclonal antibody. Cells were then washed, incubated with a FITC-Iabeled anti-mouse secondary antibody (Santa Cruz Biotechnology, Santa Cruz, Calif.), washed, mounted, and visualized using a Zeiss fluorescent microscope.
# The effect of the Ad-Hpr6-mut adenovirus in response to chemotherapy was analyzed for two reasons. First, the budding yeast homologue of Hpr6 controls resistance to damaging agents.
# [1] = Heme binding of purified Hpr6 proteins by absorbance at 400 nm; conditions: purified protein liberated from GST fusion, triplicate
# Protocol: FIG. 2. […] 2A: Purification of GST-Hpr6 (lane 1) and GST-Hpr6-mut (lane 2) fusion proteins. Proteins were purified using glutathione-agarose and analyzed by SDS-PAGE electrophoresis. 2B: Heme binding by Hpr6 (left column) but not Hpr6-mut (right column). Solubilized proteins were analyzed for absorbance at 400 nm, and measurements were performed in triplicate. 2C: western blot analysis of MDA-MB-231 cells infected with 500, 1000, or 2000 pfu/cell of Ad-Hpr6-mut (lanes 1-3) or 2000 pfu/cell of Ad-LacZ (lane 4). Hpr6 expression was visualized with an antibody to the HA epitope tag. D. The Hpr6-mut protein is overexpressed compared to endogenous Hpr6 following Ad-Hpr6-mut infection. MDA-MB 231 cells were infected with Ad-LacZ (lane 1) or Ad-Hpr6-mut (lane 2) and analyzed by western blots probed for HA (top panel), Hpr6 (middle panel), or tubulin (bottom panel). The positions of the exogenous Hpr6-mut and endogenous Hpr6 protein are indicated in the center panel (top and bottom, respectively).
# Fusion protein plasmids, preparation, and analysis. Hpr6-GST fusion proteins contained amino acids 43-195 of the Hpr6 open reading frame. […]
# Hpr6 binds to heme, and the D120G mutation in the heme-1 domain blocks heme-binding activity. […] The measurement was performed in triplicate, and the difference between Hpr6 and Hpr6-D120G absorbance was statistically significant (P=0.03). […]
heme binding (absorbance at 400 nm) [1],Compound,"induction of Hpr6 expression (Hpr6; MCF-7 cells, data not shown)","induction of Hpr6 expression (Hpr6; MDA-MB-231 cells, western blot)"
,COc1cccc2c1C(=O)c1c(O)c3c(c(O)c1C2=O)C[C@@](O)(C(=O)CO)C[C@@H]3O[C@H]1C[C@H](N)[C@H](O)[C@H](C)O1 [doxorubicin],induced,induced
,OO [hydrogen peroxide],,not induced
,CC[C@@]1(O)C(=O)OCc2c1cc1n(c2=O)Cc2cc3ccccc3nc2-1 [camptothecin],induced,induced
bound efficiently to heme,Hpr6: wild-type human heme-1 domain protein Hpr6,,
,N.N.[Cl][Pt][Cl] [cisplatinum],,not induced
absent,"Hpr6-D120G: mutant Hpr6 polypeptide, SEQ ID NO:1, aspartic acid 120 in heme binding region mutated to glycine; inactive form",,
